Test results: publication PMC6983213, “Combining Chalcones with Donepezil to Inhibit Both Cholinesterases and Aβ Fibril Assembly” (Molecules, 2019)
“Also recorded” adds a separate entry of the source. Like-named read-outs stand apart in the source and are kept apart here.

Key:
[1] = system: ADPBC (Alzheimer's disease PIB binding complex); experiment: 3H-PIB binding competition/titration, ADPBC; design: species or system Human; details: compounds at 10 μM (titration 10 to 0.03 μM); 1.2 nM 3H-PIB
Procedure: Human AD brain frontal cortical tissue (from the Sanders-Brown Center on Aging Alzheimer’s Disease Center Brain Bank at the University of Kentucky) was processed as follows.
(§1) The plates were sealed and incubated for 3 h at 22 °C, without shaking, and transferred to a 96-well Millipore Multiscreen HTS Hi Flow FB (GF/B) filter plate, and filtered with a multi-well plate vacuum manifold (Millipore Corporation, Bedford, MA, USA). […] Specific binding of ^3H-PIB was determined by subtracting the non-specific binding determined in the presence of 1 μM BTA-1.
(§2) The titration of compounds with ^3H-PIB bound to Aβ(1–40) and Aβ(1–42) fibrils and AD brain extract (ADPBC) were performed to further determine the competition of our compounds for the ^3H-PIB binding site of the AD brain. The experiments were performed as described in the ^3H-PIB binding assays of Section 3.4.3 with the use of a concentration range of 10 to 0.03 μM for the compounds tested.

F42 = Aβ(1–42) fibrils = biological target: T1, F42 = Aβ(1–42) fibrils (Homo sapiens, UniProt P05067); experiment: 3H-PIB binding competition/titration, Aβ(1–42) fibrils; details: compounds at 10 μM (titration 10 to 0.03 μM); 1.2 nM 3H-PIB
T1 construct: Aβ(1–42) (cat # A-1167-02) purchased from rPeptide; purchased rPeptide (Watkinsville, GA, USA) A-1167-02
Procedure: (§3) Prior to being transferred to screw-top polypropylene vials and being stored at −75 °C, these 1 mg/mL fibril suspensions were further diluted with an equal volume of the buffer solution.
as §1, §2

F40 = Aβ(1–40) fibrils = biological target: T2, F40 = Aβ(1–40) fibrils (Homo sapiens, UniProt P05067); experiment: 3H-PIB binding competition/titration, Aβ(1–40) fibrils; details: compounds at 10 μM (titration 10 to 0.03 μM); 1.2 nM 3H-PIB
T2 construct: lyophilized NH4OH-treated Aβ(1–40) (cat # A-1157-02); purchased rPeptide (Watkinsville, GA, USA) A-1157-02
Procedure: as §3, §1, §2

[2] = biological target: T3, N-biotinyl-Aβ(1–42) (bioAβ42) oligomer assembly (Homo sapiens, UniProt P05067); experiment: biochemical; details: for bioAβ42 oligomer assembly inhibition (in words): 1.56 to 50 μM, alone or in 1:1 / 1:1:1 mixtures; for EC50: concentration range 50 to 1.56 μM, duplicate, n = 3 independent experiments, ± SDEV
T3 construct: N-biotinyl Aβ(1–42) (bioAβ42) was purchased from Anaspec; purchased Anaspec (Fremont, CA, USA) AS-23523-05
Procedure: We first examined the effect of the synthesized 1,3- and 1,4-chalcone-donepezil hybrids 15a–15f and 16a–16f on the assembly of N-biotinyl-Aβ(1–42) (bioAβ42) monomers into oligomers. We quantified the assembly of bioAβ42 into soluble oligomers by using an ELISA assay in which the soluble oligomers were captured on NeutrAvidin^TM-coated ELISA plates and detected with streptavidin-horseradish peroxidase and colorimetric readout (Figure 3).
The plates were then stored in their blocked form at 4 °C prior to use for the oligomer assembly and dissociation assays.
The assembly of bioAβ42 into soluble oligomers was quantified with an ELISA assay in which the soluble oligomers were captured with the NeutrAvidin^TM coating the ELISA plates. The bound oligomers were detected with streptavidin-horseradish peroxidase (SA-HRP). […] Below, please find the details of the three steps (Steps 1–3) used for the oligomer assembly assay.
Step 1: Preparation of monomeric bioAβ42. For a low background, it was essential to rigorously pretreat the bioAβ42 peptide to convert (disaggregate) the multimeric species that form upon storage in the solid state, or even frozen in 1,1,1,3,3,3-hexafluoroisopropanol (HFIP) to monomers. The required amount of stock bioAβ42 peptide (0.5 mg dissolved at 1 mg/mL in HFIP) was pipetted into a polypropylene microfuge tube, dried to a thin film under a gentle air or N2 stream, and then disaggregated for 10 min at rt in neat trifluoroacetic acid (TFA). After removal of the TFA by drying with an air or N2 stream, DMSO was added to produce a 2.3 μg/mL (50×) stock solution.
Step 2: Assembly of bioAβ42 oligomers. 2 μL of disaggregated monomeric 50× bioAβ42 peptide in DMSO (prepared in Step 1) was pipetted into the bottom of each well of a polypropylene 96-well plate. […] The 96-well plate was sealed and incubated at rt for 30 min without shaking. The bioAβ42 oligomer assembly was stopped by adding 50 μL of 0.3% Tween 20 v/v in distilled H2O.
Step 3: Measurement of bioAβ42 oligomers. […] The 96-well plate was then sealed and incubated for 2 h while shaking at 150 rpm at rt. […] The plate was sealed and incubated for 1 h while shaking at 150 rpm at rt. The plate was washed as previously described, and 100 μL/well of HRP substrate (i.e., 1 mM:0.07 mM/tetramethylbenzidine:H2O2) in 0.2 M citrate buffer, pH 4.0 was added. The plate was incubated at rt for 5 to 10 min and the reaction was stopped by the addition of 100 μL/well of 1% v/v H2SO4. The absorbance of each well was read at 450 nm with a BioTek HT Synergy plate reader.
(§4) The effects of various chalcones, donepezil, donepezil analogue, and 1,3-chalcone-donepezil hybrids were tested for their ability to inhibit the bioAβ42 oligomer assembly and dissociation either alone or in combination with each other. The experiments were performed as described in the biotinyl-Aβ(1–42) (bioAβ42) oligomer assembly and dissociation assays section.

[3] = biological target: EfBChE (BChE from Equus ferus) (Equus caballus, UniProt P81908); experiment: biochemical; assay type: biochemical; details: for IC50: Ellman's method, pH 8.0, 25 °C, triplicate, ± SDEV, read-out: Inhibition (IC50) of EfBChE; for inhibition of EfBChE better than that of EeAChE: from IC50 values
Procedure: (§5) The ChE inhibition assays were performed as previously described. The 1,3- and 1,4-chalcone-donepezil hybrids (0.1 nM to 100 μM) were dissolved in sodium phosphate buffer ((100 μL), 0.1 M, pH 8.0). […] All assays were performed in triplicate. The data was plotted as a sigmoidal curve and IC50 values were calculated using SigmaPlot 14.0 (Systat Software, San Jose, CA, USA).

[4] = biological target: EeAChE (AChE from Electrophorus electricus) (Electrophorus electricus, UniProt O42275); experiment: biochemical; details: for IC50: Ellman's method, pH 8.0, 25 °C, triplicate, ± SDEV, read-out: Inhibition (IC50) of EeAChE; for selectivity index (SI): based on IC50 values against EeAChE and EfBChE
Procedure: as §5

[5] = biological target: T4, preformed bioAβ42 oligomers (Homo sapiens, UniProt P05067); experiment: bioAβ42 oligomer dissociation assay (NeutrAvidin ELISA); assay type: biochemical; details: 0.01 to 50 μM; ~18 h; alone or in 1:1 / 1:1:1 mixtures
T4 construct: N-biotinyl Aβ(1–42) (bioAβ42) was purchased from Anaspec; purchased Anaspec (Fremont, CA, USA) AS-23523-05
Procedure: Dissociation of preformed oligomers of bioAβ42 was measured by pretreating biotinylated oligomers with solvent controls or compounds for a period of time, capturing them with NeutrAvidin^TM on ELISA plates, and detecting the remaining bound oligomers with SA-HRP [77] as described above. Below, please find the details of the two steps (Steps 1 and 2) used for the oligomer dissociation assay.
Step 1: Preformed bioAβ42 oligomers (sufficient for 400 wells). In total, 1 μg of bioAβ42 peptide (1 mg/mL dissolved in HFIP) was pipetted into 20 μL of HFIP in a polypropylene microfuge tube, and dried to a thin film under a gentle air or N2 stream. The film was dissolved in 250 μL of DMSO and vortexed. […] After incubation at rt for 1 h with intermittent vortexing, 0.375 mL of 100 mM Tween 20 (10% v/v) in distilled H2O was added to make the final Tween 20 concentration 0.3% v/v. The preformed oligomers were mixed by inversion and aliquoted for storage at −75 °C. Note: Multiple freeze-thaw cycles should be avoided.
Step 2: Oligomer dissociation assay. […] Then, 25 μL of the preformed bio42 oligomers adjusted to 0.6% v/v Tween 20 was pipetted into each well of a polypropylene 96-well plate. […] The plates were sealed and shaken at 150 rpm overnight at rt. After 18 h of incubation, the plates were centrifuged at 1000× g for 10 min and a 100-μL aliquot was transferred from each well into a well of an NA-coated ELISA plate that had been blocked with Tween 20. The oligomer content of that aliquot was measured as described for the bioAβ42 oligomer assembly assay.
as §4

[6] = read-out: EC50 against bioAβ42 oligomer assembly

Chain of EfBChE (BChE from Equus ferus) (P81908 whole entry): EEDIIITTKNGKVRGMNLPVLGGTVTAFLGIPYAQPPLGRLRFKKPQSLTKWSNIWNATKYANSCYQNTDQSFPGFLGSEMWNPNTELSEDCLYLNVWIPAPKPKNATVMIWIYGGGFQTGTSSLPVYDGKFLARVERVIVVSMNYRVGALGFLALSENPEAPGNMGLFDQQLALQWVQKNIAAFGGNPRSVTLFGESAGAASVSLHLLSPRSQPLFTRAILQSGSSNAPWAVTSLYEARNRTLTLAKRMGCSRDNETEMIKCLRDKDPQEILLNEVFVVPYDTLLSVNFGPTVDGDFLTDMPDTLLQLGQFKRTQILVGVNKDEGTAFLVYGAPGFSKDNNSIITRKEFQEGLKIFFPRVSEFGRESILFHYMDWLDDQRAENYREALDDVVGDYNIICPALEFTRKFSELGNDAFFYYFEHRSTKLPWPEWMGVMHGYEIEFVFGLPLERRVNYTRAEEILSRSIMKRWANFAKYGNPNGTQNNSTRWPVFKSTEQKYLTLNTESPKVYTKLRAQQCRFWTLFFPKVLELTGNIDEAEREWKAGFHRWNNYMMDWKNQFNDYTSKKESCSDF
T3 sequence (P05067 672-713): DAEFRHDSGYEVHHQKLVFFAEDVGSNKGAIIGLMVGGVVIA
T4 sequence (P05067 672-713): as above
Chain of EeAChE (AChE from Electrophorus electricus) (O42275 24-633): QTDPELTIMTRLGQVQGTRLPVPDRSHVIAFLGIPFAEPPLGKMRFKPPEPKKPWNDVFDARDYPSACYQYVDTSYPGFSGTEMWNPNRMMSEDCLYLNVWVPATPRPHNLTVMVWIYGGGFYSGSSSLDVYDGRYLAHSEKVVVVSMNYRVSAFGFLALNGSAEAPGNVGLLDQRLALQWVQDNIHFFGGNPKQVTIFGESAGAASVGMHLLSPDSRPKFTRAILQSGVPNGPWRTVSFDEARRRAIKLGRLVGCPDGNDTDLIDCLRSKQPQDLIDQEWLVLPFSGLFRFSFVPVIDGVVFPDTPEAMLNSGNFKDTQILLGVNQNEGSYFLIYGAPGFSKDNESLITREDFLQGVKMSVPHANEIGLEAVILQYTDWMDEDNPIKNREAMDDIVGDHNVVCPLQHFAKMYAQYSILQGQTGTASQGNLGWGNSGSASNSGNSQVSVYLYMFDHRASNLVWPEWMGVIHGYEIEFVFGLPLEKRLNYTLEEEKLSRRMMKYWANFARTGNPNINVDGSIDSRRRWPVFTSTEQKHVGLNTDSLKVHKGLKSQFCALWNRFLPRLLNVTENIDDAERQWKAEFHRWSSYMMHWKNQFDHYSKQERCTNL
T2 sequence (P05067 672-711): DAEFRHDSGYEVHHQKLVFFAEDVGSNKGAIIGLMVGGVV
T1 sequence (P05067 672-713): as the sequence (P05067 672-713) above

`COc1cc2c(cc1OCCOc1cccc(C(=O)/C=C/c3ccc(N(C)C)cc3)c1)C(=O)C(CC1CCN(Cc3ccccc3)CC1)C2` (stereo not shown) [15a, (E)-2-((1-Benzylpiperidin-4-Yl)Methyl)-6-(2-(3-(3-(4-(Dimethylamino)Phenyl)Acryloyl)Phenoxy)Ethoxy)-5-Methoxy-2,3-Dihydro-1H-Inden-1-One] was tested, and the “displacement of 3H-PIB from ADPBC (in words)” value [1] was “better binding to F40, F42, and ADPBC than 15c, 15d, 15e, and 15f”, the “displacement of 3H-PIB from F42 (in words)” value (F42 = Aβ(1–42) fibrils) was “better binding to F40, F42, and ADPBC than 15c, 15d, 15e, and 15f” and the “displacement of 3H-PIB from F40 (in words)” value (F40 = Aβ(1–40) fibrils) was “better binding to F40, F42, and ADPBC than 15c, 15d, 15e, and 15f”. The “bioAβ42 oligomer assembly inhibition (in words)” value [2] was “successful in preventing the self-assembly of bioAβ42; also recorded: better inhibition of bioAβ42 oligomer assembly”, the EC50 ([2]; EC50 against bioAβ42 oligomer assembly) was 4.83 ± 0.47 µM and the IC50 [3] was 20 ± 2 nM. The “inhibition of EfBChE better than that of EeAChE” value [3] was 51 fold, the IC50 [4] was 1020 ± 330 nM and the “selectivity index (SI)” value [4] was 0.02.

`CN(C)c1ccc(/C=C/C(=O)c2cccc(O)c2)cc1` [compound 3, (E)-3-(4-(Dimethylamino)Phenyl)-1-(3-Hydroxyphenyl)Prop-2-En-1-One] was tested, and the “bioAβ42 oligomer assembly inhibition (in words)” value [2] was “did not inhibit bioAβ42 assembly”, the EC50 [2, 6] was greater than 50 µM and the “dissociation of preformed bioAβ42 oligomers (in words)” value (shortened to “dissociation”) [5] was “did not dissociate the preformed oligomers”.

With `CN(C)c1ccc(/C=C/C(=O)c2cccc(OCCO)c2)cc1` [compound 17, (E)-3-(4-(Dimethylamino)Phenyl)-1-(3-(2-Hydroxyethoxy)Phenyl)Prop-2-En-1-One] the “bioAβ42 oligomer assembly inhibition (in words)” value [2] was “did not inhibit bioAβ42 assembly” and the “dissociation” value [5] was “did not dissociate the preformed oligomers”.

With `COc1cc2c(cc1OCCO)C(=O)C(CC1CCN(Cc3ccccc3)CC1)C2` (stereo not shown) [compound 20, 2-((1-Benzylpiperidin-4-Yl)Methyl)-6-(2-Hydroxyethoxy)-5-Methoxy-2,3-Dihydro-1H-Inden-1-One] the “bioAβ42 oligomer assembly inhibition (in words)” value [2] was “did not inhibit bioAβ42 assembly” and the “dissociation” value [5] was “did not dissociate the preformed oligomers”.

For `COc1cc2c(cc1OCCCCOc1cccc(C(=O)/C=C/c3ccc(N(C)C)cc3)c1)C(=O)C(CC1CCN(Cc3ccccc3)CC1)C2` (stereo not shown) [15b, (E)-2-((1-Benzylpiperidin-4-Yl)Methyl)-6-(4-(3-(3-(4-(Dimethylamino)Phenyl)Acryloyl)Phenoxy)Butoxy)-5-Methoxy-2,3-Dihydro-1H-Inden-1-One], the “displacement of 3H-PIB from ADPBC (in words)” value [1] was “better binding to F40, F42, and ADPBC than 15c, 15d, 15e, and 15f”, the “displacement of 3H-PIB from F42 (in words)” value (F42 = Aβ(1–42) fibrils) was “better binding to F40, F42, and ADPBC than 15c, 15d, 15e, and 15f” and the “displacement of 3H-PIB from F40 (in words)” value (F40 = Aβ(1–40) fibrils) was “better binding to F40, F42, and ADPBC than 15c, 15d, 15e, and 15f”. The “bioAβ42 oligomer assembly inhibition (in words)” value [2] was “better inhibition of bioAβ42 oligomer assembly”, the EC50 [2, 6] was 4.1 ± 0.17 µM and the IC50 [3] was 30 ± 10 nM. The “inhibition of EfBChE better than that of EeAChE” value [3] was 22 fold, the IC50 [4] was 650 ± 140 nM and the “selectivity index (SI)” value [4] was 0.05.
